Reference: the NIST ThermoML archive (doi:10.1021/je5000132)

Experiment: xn = mol fraction of the nth substance listed
Conditions: for speed of sound: 100 kPa, Pulse-echo method; for speed of sound / viscosity / mass density: Liquid; for viscosity / mass density: 101 kPa; for viscosity: Concentric cylinders viscometry; for mass density: Vibrating tube method; for surface tension liquid-gas: 294.7 K, Drop volume

CC(CC(C)(C)C)CC(C)(C)CC(C)(C)C (stereo not given) [2,2,4,4,6,8,8-heptamethylnonane] + CCCCCCCCCCCC
Conditions | mass density [kg/m3] | speed of sound [m/s] | viscosity [mPa·s]
293.15 K, x1 = 0.103 | 753.263 | 1295.6 | 1.59
293.15 K, x1 = 0.1677 | 756.137 | 1294.1 | 1.67
293.15 K, x1 = 0.2944 | 761.09 | 1292 | 1.84
293.15 K, x1 = 0.4191 | 765.497 | 1290.5 | 2.03
293.15 K, x1 = 0.5011 | 768.604 | 1289.5 | 2.19
293.15 K, x1 = 0.5955 | 771.819 | 1288.5 | 2.4
293.15 K, x1 = 0.7585 | 777.128 | 1287.2 | 2.83
293.15 K, x1 = 0.8985 | 781.527 | 1286.3 | 3.29
293.15 K, x1 = 1 | 784.457 | 1285.7 | 3.7
303.15 K, x1 = 0.103 | 746.092 | 1257.5 | 1.32
303.15 K, x1 = 0.1677 | 749.065 | 1256.2 | 1.39
303.15 K, x1 = 0.2944 | 754.068 | 1254.3 | 1.53
303.15 K, x1 = 0.4191 | 758.54 | 1252.9 | 1.67
303.15 K, x1 = 0.5011 | 761.702 | 1252 | 1.8
303.15 K, x1 = 0.5955 | 764.964 | 1251 | 1.95
303.15 K, x1 = 0.7585 | 770.346 | 1249.8 | 2.28
303.15 K, x1 = 0.8985 | 774.79 | 1248.9 | 2.62
303.15 K, x1 = 1 | 777.761 | 1248.5 | 2.92
313.15 K, x1 = 0.103 | 738.895 | 1219.8 | 1.12
313.15 K, x1 = 0.1677 | 741.921 | 1218.7 | 1.17
313.15 K, x1 = 0.2944 | 747.011 | 1217 | 1.28
313.15 K, x1 = 0.4191 | 751.556 | 1215.7 | 1.4
313.15 K, x1 = 0.5011 | 754.77 | 1214.9 | 1.5
313.15 K, x1 = 0.5955 | 758.085 | 1214.1 | 1.63
313.15 K, x1 = 0.7585 | 763.538 | 1213 | 1.88
313.15 K, x1 = 0.8985 | 768.028 | 1212.2 | 2.14
313.15 K, x1 = 1 | 771.044 | 1211.8 | 2.37
323.15 K, x1 = 0.103 | 731.669 | 1182.8 | 0.966
323.15 K, x1 = 0.1677 | 734.749 | 1181.8 | 1.01
323.15 K, x1 = 0.2944 | 739.926 | 1180.3 | 1.1
323.15 K, x1 = 0.4191 | 744.546 | 1179.2 | 1.19
323.15 K, x1 = 0.5011 | 747.812 | 1178.5 | 1.27
323.15 K, x1 = 0.5955 | 751.18 | 1177.8 | 1.37
323.15 K, x1 = 0.7585 | 756.708 | 1176.8 | 1.57
323.15 K, x1 = 0.8985 | 761.266 | 1176.3 | 1.77
323.15 K, x1 = 1 | 764.316 | 1176 | 1.95
333.15 K, x1 = 0.103 | 724.407 | 1146.3 | 0.84
333.15 K, x1 = 0.1677 | 727.54 | 1145.4 | 0.877
333.15 K, x1 = 0.2944 | 732.805 | 1144.2 | 0.95
333.15 K, x1 = 0.4191 | 737.503 | 1143.3 | 1.03
333.15 K, x1 = 0.5011 | 740.821 | 1142.7 | 1.09
333.15 K, x1 = 0.5955 | 744.244 | 1142.2 | 1.17
333.15 K, x1 = 0.7585 | 749.858 | 1141.4 | 1.33
333.15 K, x1 = 0.8985 | 754.484 | 1141 | 1.49
333.15 K, x1 = 1 | 757.571 | 1140.8 | 1.63
343.15 K, x1 = 0.103 | 717.1 | – | 0.738
343.15 K, x1 = 0.1677 | 720.2 | – | 0.769
343.15 K, x1 = 0.2944 | 725.6 | – | 0.83
343.15 K, x1 = 0.4191 | 730.4 | – | 0.895
343.15 K, x1 = 0.5011 | 733.7 | – | 0.949
343.15 K, x1 = 0.5955 | 737.2 | – | 1.01
343.15 K, x1 = 0.7585 | 743 | – | 1.14
343.15 K, x1 = 0.8985 | 747.6 | – | 1.27
343.15 K, x1 = 1 | 750.7 | – | 1.39
353.15 K, x1 = 0.103 | 709.6 | – | 0.654
353.15 K, x1 = 0.1677 | 712.7 | – | 0.681
353.15 K, x1 = 0.2944 | 718.2 | – | 0.732
353.15 K, x1 = 0.4191 | 723.1 | – | 0.787
353.15 K, x1 = 0.5011 | 726.5 | – | 0.832
353.15 K, x1 = 0.5955 | 730.1 | – | 0.885
353.15 K, x1 = 0.7585 | 736 | – | 0.994
353.15 K, x1 = 0.8985 | 740.7 | – | 1.1
353.15 K, x1 = 1 | 743.8 | – | 1.19
363.15 K, x1 = 0.103 | 702 | – | 0.585
363.15 K, x1 = 0.1677 | 705.3 | – | 0.608
363.15 K, x1 = 0.2944 | 710.8 | – | 0.652
363.15 K, x1 = 0.4191 | 715.8 | – | 0.698
363.15 K, x1 = 0.5011 | 719.2 | – | 0.737
363.15 K, x1 = 0.5955 | 722.9 | – | 0.782
363.15 K, x1 = 0.7585 | 728.9 | – | 0.873
363.15 K, x1 = 0.8985 | 733.6 | – | 0.963
363.15 K, x1 = 1 | 736.8 | – | 1.04
373.15 K, x1 = 0.103 | 694.5 | – | 0.528
373.15 K, x1 = 0.1677 | 697.8 | – | 0.548
373.15 K, x1 = 0.2944 | 703.5 | – | 0.586
373.15 K, x1 = 0.4191 | 708.5 | – | 0.626
373.15 K, x1 = 0.5011 | 712 | – | 0.659
373.15 K, x1 = 0.5955 | 715.8 | – | 0.697
373.15 K, x1 = 0.7585 | 721.8 | – | 0.775
373.15 K, x1 = 0.8985 | 726.6 | – | 0.85
373.15 K, x1 = 1 | 729.9 | – | 0.914

Conditions | surface tension liquid-gas [mN/m]
x1 = 0.1677 | 24.8
x1 = 0.2944 | 24.9
x1 = 0.4191 | 24.6
x1 = 0.5011 | 24.6
x1 = 0.5955 | 24.3
x1 = 0.7585 | 24.2
x1 = 0.8985 | 24.2
x1 = 1 | 24
